SMILES strings stand for the structures.

The values that follow come from the METLIN SMRT retention time set (Domingo-Almenara et al. 2019).

The series can be described thus: gradient 5% acetonitrile 3 min, to 50% in 2 min, to 85% in 15 min, held 3 min, 100 µL/min. The note with it: column: Zorbax Extend-C18 2.1 x 50 mm; eluents: water / acetonitrile, 0.1% formic acid. The gist of the method:
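The system's dead and dwell volumes were 40 μL and 900 μL, with a Zorbax Extend-C18 column (2.1 × 50 mm, 1.8 μm) run at 100 μL/min in water and acetonitrile containing 0.1% formic acid each. Pure standards were analyzed in mixtures of ~100 molecules by HPLC–quadrupole time-of-flight mass spectrometry in positive and negative ionization mode. Retention time was assigned from computationally picked, manually inspected adduct peaks.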
Take `Cc1ccc(Cl)cc1NC(=O)C1CCN(S(=O)(=O)c2ccc3c(c2)NC(=O)C(C)O3)CC1` (stereo not drawn): the RP-LC retention time is 834 s.

The compound `O=C1/C(=C/c2ccccc2)C[C@@]2(O)[C@H]3Cc4ccc(O)c5c4[C@@]2(CCN3CC2CC2)[C@H]1O5` came in with an RP-LC retention time of 724 s.

In turn, `COc1ccc(C(=O)N2CCN(c3cc(-c4cccs4)[nH]n3)CC2)cc1` showed an RP-LC retention time of 749 s.

On to `CCN(CC)CCNC(=O)c1cn(C)nc1S(=O)(=O)N1CCN(c2cccc(Cl)c2)CC1`, for which the RP-LC retention time was determined as 711 s.

Consider `CCCc1noc(-c2ccnc(-n3cnc(C(=O)N4CCOCC4)c3)c2)n1`, for which the RP-LC retention time came to 747 s.

The compound `O=C(NCCN1CCCCCC1)C1CCN(c2cnn(Cc3ccccc3)c(=O)c2)CC1` gave an RP-LC retention time of 614 s.

For the compound `Cc1ccc(CN2CCC(CNC(=O)Cn3ccc4c(=O)n(C)c(=O)n(C)c43)CC2)cc1`, the RP-LC retention time was 601 s.

Compound `CN1C(=O)c2cc(C(=O)N3CCOCC3)nn2CC1(C)C(=O)NCc1ccc(F)cc1` (stereo not drawn) registered an RP-LC retention time of 644 s.

Take `CCc1nc(-c2cc(S(=O)(=O)NCC(=O)NC3CCCCC3)c(C)s2)no1`: the RP-LC retention time stood at 906 s.

The compound `CCc1ccc(C2=C(C)C(N3CCCN(C(=O)COC)CC3)=NS2(=O)=O)cc1` came in with an RP-LC retention time of 742 s.

`COc1ccc2c(c1)CCC1C2CC[C@@]2(C)C1CC[C@@H]2NCCCCCCN1C(=O)CCC1=O` (stereo partly drawn): the RP-LC retention time stood at 864 s.

The compound `Cn1ccc2cc(S(=O)(=O)N3CCCC(C(=O)NC4CCN(Cc5ccccc5)CC4)C3)ccc21` (stereo not drawn) returned an RP-LC retention time of 685 s.

As to `CCCN1C(=O)COc2ccc(-c3noc(Cc4ccc(OC)c(OC)c4)n3)cc21`, the RP-LC retention time came out at 993 s.

For `NC(=O)c1ccc2c(c1)S(=O)(=O)c1ccccc1C2=O`, the RP-LC retention time was determined as 727 s.

On to `Cc1coc2cc3oc(=O)c(CC(=O)N4CCC(C(N)=O)CC4)c(C)c3cc12`, for which the RP-LC retention time worked out at 654 s.

`FCCN(CCF)c1cccc(Cl)c1` displayed an RP-LC retention time of 1060 s.

`CN(CCNC(=O)c1ccc(CN2C(=O)CCn3nccc32)cc1)C1CCCCC1` yielded an RP-LC retention time of 599 s.

`CCc1ccc(N2C(=O)C3N=NN(c4ccc(Br)c(C)c4)C3C2=O)cc1` (stereo not drawn) gave an RP-LC retention time of 1190 s.

Take `O=S(=O)(Cc1ccc(Cl)cc1)c1ccc(N2CCN(c3ccccn3)CC2)nn1`: the RP-LC retention time came out at 654 s.

`Cc1ccc(C)c(NC(=O)Cn2c(=O)n(-c3ccc(F)cc3)c(=O)c3c2cc(C)n3C)c1` displayed an RP-LC retention time of 931 s.

With `CCCCNC(=O)c1cn(CC)nc1S(=O)(=O)N1CCN(c2ccccc2OCC)CC1`, the RP-LC retention time amounted to 1080 s.

As to `Cc1oc2ccc(NS(=O)(=O)c3ccc(F)cc3)cc2c1C(=O)O`, the RP-LC retention time is 742 s.

`CCC(C)NC(=O)c1n[nH]c2c1CC(C)CC2` (stereo not drawn) had an RP-LC retention time of 777 s.

For the compound `O=C(Nc1ccc2cn[nH]c2c1)c1ccc(=O)[nH]n1`, the RP-LC retention time was determined as 567 s.

`COc1cccc(C2Cn3nnc(-c4nc(-c5ccc(Br)cc5)no4)c3CO2)c1` (stereo not drawn) yielded an RP-LC retention time of 1240 s.

The compound `COCCN1C(=O)c2ccccc2C(C(=O)NCc2ccccn2)C1c1cccs1` (stereo not drawn) yielded an RP-LC retention time of 642 s.

In turn, `CC(=O)N1CCCC(C(=O)N2CCOCC2)C1` (stereo not drawn) registered an RP-LC retention time of 554 s.

The compound `O=C(NC1CC1)c1ccccc1OCC1CCCN(Cc2ccc3c(c2)CCO3)C1` (stereo not drawn) displayed an RP-LC retention time of 580 s.

As to `Cc1nc(CNS(=O)(=O)c2cc([N+](=O)[O-])ccc2C)cs1`, the RP-LC retention time worked out at 716 s.

`C=CCN=C(NC#N)SC` showed an RP-LC retention time of 696 s.

Regarding `Cc1cc(=O)n(CC(=O)NCc2cccs2)c(N(C)Cc2ccccc2)n1`, the RP-LC retention time worked out at 698 s.

`O=C(NCc1ccc2c(c1)OCO2)C1CCN(C(=O)c2ccc(-c3noc(C4CC4)n3)cc2)CC1` registered an RP-LC retention time of 796 s.

Take `CSc1ncccc1C(=O)N1CCc2cc(-c3ccno3)ccc21`: the RP-LC retention time came to 871 s.
